Assay results as given in US20200017495A1, “NOVEL HETEROCYCLIC COMPOUNDS AND THEIR USE IN PREVENTING OR TREATING BACTERIAL INFECTIONS” (priority 2017, published 2020).
Values joined by “and” are separate entries in the source; they are usually repeats but may differ in a detail not shown here. Identical values can stand only once. Like-named read-outs stand apart in the source and are kept apart here.

Legend:
Assay in all cases: MIC of compounds alone and combined with antibacterials, broth microdilution (CLSI)
Assay type in all cases: cell-based
[1] = system: Citrobacter koseri (CKR) isolates
Outline: (§1)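 Antibacterial MICs in combination were determined at every compound concentration tested, alongside compound MICs alone. Bacteria grew in cation-adjusted Mueller-Hinton broth starting from 5.10^5 CFU/mL, incubated at 35° C for 16-20 h, and endpoints were the lowest concentrations with no visible growth.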

[2] = system: Enterobacter aerogenes (EAE) isolates
Outline: as §1

[3] = system: Klebsiella oxytoca (KOX) isolates
Outline: as §1

[4] = system: Serratia marcescens (SMA) isolates
Outline: as §1

[5] = system: Citrobacter freundii (CFR) isolates
Outline: as §1

[6] = system: Escherichia coli (ECO) isolates
Outline: as §1

CC1(C)S[C@@H]2[C@H](NC(=O)[C@H](N)c3ccc(O)cc3)C(=O)N2[C@H]1C(=O)O [AMX, Amoxicillin]
MIC ATB in combination [1]: >128 mg/L | MIC ATB in combination ([1]; CKO ROU, AF2 @ 8 μg/mL): 8 mg/L | MIC ([1]; strain CKO ROU, genotype TEM-1, SHV-12, CTX-M-15, OXA-1, OXA-48): >256 mg/L | MIC ([1]; strain CKO UFR149, genotype OXA-48): >128 mg/L | MIC ([1]; strain CKO UFR150, genotype TEM-1, OXA-48): >128 mg/L | MIC ATB in combination ([2]; EAE 49469, AF2 @ 8 μg/mL): <=0.25 μg/mL | MIC ATB in combination ([2]; EAE 49469, CLA @ 4 μg/mL): >128 mg/L | MIC ATB in combination ([2]; EAE 200261, AF2 @ 8 μg/mL): 16 mg/L | MIC ATB in combination ([2]; EAE 200261, CLA @ 4 μg/mL): >128 mg/L | MIC ATB in combination ([2]; EAE UFR199, CLA @ 4 μg/mL): >128 mg/L | MIC ATB in combination ([2]; EAE UFR201, CLA @ 4 μg/mL): 16 mg/L | MIC ATB in combination ([2]; EAE UFR202, CLA @ 4 μg/mL): >128 mg/L | MIC ATB in combination ([2]; EAE UFR207, CLA @ 4 μg/mL): 32 mg/L | MIC ATB in combination ([2]; EAE UFR213, CLA @ 4 μg/mL): >128 mg/L | MIC ([2]; strain EAE 49469, genotype AmpC): >1024 mg/L | MIC ([2]; strain EAE 200261, genotype TEM-x, AmpC): >256 mg/L | MIC ([2]; strain EAE UFR199, genotype TEM-1b, SHV-12, KPC-2, OXA-9): >128 mg/L | MIC ([2]; strain EAE UFR201, genotype TEM-1, SHV-12, CTX-M-15): >128 mg/L | MIC ([2]; strain EAE UFR202, genotype TEM-24): >128 mg/L | MIC ([2]; strain EAE UFR213, genotype TEM-24): >128 mg/L | MIC [3]: >128 mg/L | MIC ATB in combination [3]: >128 mg/L | MIC ([3]; strain KOX UFR21, genotype TEM-1, CTX-M-15, OXA-48): >256 mg/L | MIC ([3]; strain KOX UFR223, genotype SHV-11, OXA-48): >128 mg/L | MIC ([3]; strain KOX UFR224, genotype CTX-M-15, OXA-48): >128 mg/L | MIC [4]: >128 mg/L | MIC ATB in combination [4]: >128 mg/L and 128 mg/L | MIC ATB in combination ([4]; SMA UFR30, AF2 @ 8 μg/mL): 64 mg/L | MIC ATB in combination ([4]; SMA UFR239, CLA @ 4 μg/mL): 64 mg/L | MIC ([4]; strain SMA UFR30, genotype OXA-405): >256 mg/L | MIC ([4]; strain SMA UFR134, genotype TEM-1, BES-1): >128 mg/L | MIC ([4]; strain SMA UFR135, genotype TEM-1, KPC-2): >128 mg/L | MIC ([4]; strain SMA UFR136, genotype TEM-1, SHV-12, KPC-2): >128 mg/L | MIC ([4]; strain SMA UFR140, genotype IMP-1): >128 mg/L | MIC ([4]; strain SMA UFR141, genotype OXA-48): >128 mg/L | MIC ([4]; strain SMA UFR142, genotype OXA-48): >128 mg/L | MIC ([4]; strain SMA UFR143, genotype CTX-M-15, OXA-1, OXA-48): >128 mg/L | MIC ([4]; strain SMA UFR238, genotype OXA-48): >128 mg/L | MIC ATB in combination ([5]; CFR UFR10, AF2 @ 8 μg/mL): 1 mg/L | MIC ATB in combination ([5]; CFR UFR10, CLA @ 4 μg/mL): >128 mg/L | MIC ATB in combination ([5]; CFR UFR11, AF2 @ 8 μg/mL): >128 mg/L | MIC ATB in combination ([5]; CFR UFR11, CLA @ 4 μg/mL): >128 mg/L | MIC ATB in combination ([5]; CFR UFR37, AF2 @ 8 μg/mL): <0.25 mg/L | MIC ATB in combination ([5]; CFR UFR37, CLA @ 4 μg/mL): >128 mg/L | MIC ATB in combination ([5]; CFR UFR83, AF2 @ 8 μg/mL): >128 mg/L | MIC ATB in combination ([5]; CFR UFR83, CLA @ 4 μg/mL): >128 mg/L | MIC ATB in combination ([5]; CFR UFR146, CLA @ 4 μg/mL): >128 mg/L | MIC ATB in combination ([5]; CFR UFR248, CLA @ 4 μg/mL): >128 mg/L | MIC ATB in combination ([5]; CFR UFR249, CLA @ 4 μg/mL): >128 mg/L | MIC ATB in combination ([5]; CFR UFR250, CLA @ 4 μg/mL): 128 mg/L | MIC ([5]; strain CFR UFR10, genotype OXA-48): >256 mg/L | MIC ([5]; strain CFR UFR11, genotype TEM-1, OXA-1, OXA-48): >256 mg/L | MIC ([5]; strain CFR UFR37, genotype TEM-1, CTX-M-15, NDM-1): >256 mg/L | MIC ([5]; strain CFR UFR83, genotype TEM-3, AmpC): >256 mg/L | MIC ([5]; strain CFR UFR146, genotype TEM-1, KPC-2): >128 mg/L | MIC ([5]; strain CFR UFR147, genotype TEM-1, CTX-M-15, OXA-1, OXA-181, OXA-10, OXA-9, NDM-1, ArmA, dfrA12, aadA2, antibiotic alone): >128 mg/L | MIC ATB in combination ([5]; strain CFR UFR147, with CLA @ 4 μg/mL): >128 mg/L | MIC ([5]; strain CFR UFR148, genotype TEM-1, TEM-2, CTX-M-15, NDM-1, antibiotic alone): >128 mg/L | MIC ATB in combination ([5]; strain CFR UFR148, with CLA @ 4 μg/mL): >128 mg/L | MIC ([5]; strain CFR UFR248, genotype CTX-M-15): >128 mg/L | MIC ([5]; strain CFR UFR249, genotype TEM-1, CTX-M-15): >128 mg/L | MIC ([5]; strain CFR UFR250, genotype TEM-1, SHV-28, CTX-M-15): >128 mg/L | MIC ([5]; strain CFR UFR251, genotype SHV-11, VIM-1, antibiotic alone): >128 mg/L | MIC ATB in combination ([5]; strain CFR UFR251, with CLA @ 4 μg/mL): >128 mg/L | MIC ([5]; strain CFR UFR252, genotype VIM-2, antibiotic alone): >128 mg/L | MIC ATB in combination ([5]; strain CFR UFR252, with CLA @ 4 μg/mL): >128 mg/L | MIC ([5]; strain CFR UFR253, genotype TEM-1, SHV-12, OXA-48): >128 mg/L | MIC ATB in combination ([5]; strain CFR UFR253, with CLA @ 4 μg/mL): >128 mg/L | MIC ([5]; strain CFR UFR254, genotype VEB-1b, OXA-48, qnrA): >128 mg/L | MIC ATB in combination ([5]; strain CFR UFR254, with CLA @ 4 μg/mL): >128 mg/L | MIC ATB in combination [6]: >128 mg/L and 128 mg/L | MIC ATB in combination ([6]; ECO 4133, AF2 @ 8 μg/mL): <0.25 mg/L | MIC ATB in combination ([6]; ECO 5302, AF2 @ 8 μg/mL): <0.25 mg/L | MIC ATB in combination ([6]; ECO 131119, AF2 @ 8 μg/mL): <0.25 mg/L | MIC ATB in combination ([6]; ECO 131119, CLA @ 4 μg/mL): >512 mg/L | MIC ATB in combination ([6]; ECO 180070, AF2 @ 8 μg/mL): <0.25 mg/L | MIC ATB in combination ([6]; ECO 180070, CLA @ 4 μg/mL): 16 mg/L | MIC ATB in combination ([6]; ECO 190314, AF2 @ 8 μg/mL): <0.25 mg/L | MIC ATB in combination ([6]; ECO 190314, CLA @ 4 μg/mL): 8 mg/L | MIC ATB in combination ([6]; ECO 190317, AF2 @ 8 μg/mL): <0.25 mg/L | MIC ATB in combination ([6]; ECO 190317, CLA @ 4 μg/mL): 64 mg/L | MIC ATB in combination ([6]; ECO 190457, AF2 @ 8 μg/mL): <0.25 mg/L | MIC ATB in combination ([6]; ECO 190549, AF2 @ 8 μg/mL): <0.25 mg/L | MIC ATB in combination ([6]; ECO 190549, CLA @ 4 μg/mL): 8 mg/L | MIC ATB in combination ([6]; ECO 200159, AF2 @ 8 μg/mL): <0.25 mg/L | MIC ATB in combination ([6]; ECO 200159, CLA @ 4 μg/mL): 8 mg/L
